Measurements published in patent publication US11779014B2, “Adjuvants” (SYNGENTA PARTICIPATIONS AG, priority 2017, dated 2023).

What was measured:
Type in all cases: in vivo
[1] = test system: Digitaria sanguinalis (DIGSA); assay: Glasshouse adjuvancy test for nicosulfuron on DIGSA
Experimental: The biological efficacies of blends of an oleyl 20 ethoxylate uncapped surfactant with an oleyl 20 ethoxylate surfactant with an n-hexyl ether cap as adjuvants for the herbicide nicosulfuron were tested in a glasshouse against three weed species sown into standard soil in pots and cultivated under controlled conditions in a glasshouse (24/18° C. day/night; 16 hours light; 65% humidity). Nicosulfuron was added to the spray tank as a standard WG (water dispersible granule) formulation. The plants were sprayed with nicosulfuron at rates of 15 or 60 grams of pesticide per hectare using a laboratory track sprayer which delivered the aqueous spray composition at a rate of 200 litres per hectare, using a flat fan nozzle (Teejet 11002VS) at 2 bar. The adjuvants were added to the spray solution at a total rate of 0.1 or 0.2% w/v in all cases and at extra lower rates for the oleyl 20EO alone and its 1:1 blend with the oleyl 20EO n-hexyl ether to show the dose response to these adjuvants. All spray solutions also contained 10% w/w of iso-propanol. The weed species and their BBCH growth stage at spraying were Chenopodium album (CHEAL; growth stage 15), Digitaria sanguinalis (DIGSA; growth stage 14), and Commelina benghalensis (COMBE; growth stage 14). Each spray test was replicated three times. The test plants were then grown in a glasshouse under controlled conditions (24/18° C. day/night; 16 hours light; 65% humidity) and watered twice a day. The efficacy of the herbicide was assessed visually and expressed as a percentage of the leaf area killed. Samples were assessed at a time period of 21 days following application. The following tables (3-8) show the effect of blends of the two surfactants at a total concentration of 0.2 and 0.1%. In each case the blends were 1:0, 3:1, 1:1, 1:3 and 0:1 w/w of oleyl 20EO:oleyl 20 EO n-hexyl ether. The biological efficacies of blends of oleyl 20 ethoxylate and oleyl 20EO ethoxylate with a benzoate cap as adjuvants for the herbicide nicosulfuron were tested in a glasshouse using the same method as for ‘Example 1’ but against just two weed species and with just 0.2% w/v total adjuvant concentration. The weed species and their BBCH growth stage at spraying HI were Chenopodium album (CHEAL; growth stage 13-15) and Digitaria sanguinalis (DIGSA; growth stage 14-22).

[2] = test system: Brachiaria platyphylla (BRAPL); assay: Glasshouse adjuvancy test for mesotrione on BRAPL; settings: total surfactant 0.2% w/v, 21 days
Experimental: Mesotrione was added to the spray tank as a standard SC (suspension concentrate) formulation. The plants were sprayed with mesotrione at rates of 30 or 60 grams of pesticide per hectare using a laboratory track sprayer which delivered the aqueous spray composition at a rate of 200 litres per hectare, using a flat fan nozzle (Teejet 11002VS) and an application volume of 200 litre/ha (at 2 bar). The spray solutions also contained the oleyl 20EO alone or in 1:1 blends with the capped surfactants. The adjuvants were added to the spray solution at a total surfactant rate of 0.2% w/v. All spray solutions also contained 10% w/w of iso-propanol. The weed species and their BBCH growth stage at spraying were Brachiaria platyphylla (BRAPL; growth stage 12-13), Commelina benghalensis (COMBE; growth stage 12-14) and Digitaria sanguinalis (DIGSA; growth stage 13). Each spray test was replicated three times. The test plants were then grown in a glasshouse under controlled conditions (24/18° C. day/night; 16 hours light; 65% humidity) and watered twice a day. The efficacy of the herbicide was assessed visually and expressed as a percentage of the leaf area killed. Samples were assessed at a time period of 21 days following application

[3] = test system: Chenopodium album (CHEAL); assay: Glasshouse adjuvancy test for fomesafen (sodium salt) on CHEAL; settings: total surfactant 0.2% w/v, 21 days
Experimental: Fomesafen sodium salt was added to the spray tank as a standard SL (soluble concentrate) formulation. The plants were sprayed with fomesafen (sodium salt) at rates of 100 or 200 grams of sodium fomesafen per hectare using a laboratory track sprayer which delivered the aqueous spray composition at a rate of 200 litres per hectare, using a flat fan nozzle (Teejet 11002VS) at 2 bar. The spray solutions also contained the oleyl 20EO alone or in the 1:1 blends with the capped surfactants. The adjuvants were added to the spray solution at a total surfactant rate of 0.2% w/v. All spray solutions also contained 10% w/w of iso-propanol. The weed specie and its BBCH growth stage at spraying was Chenopodium album (CHEAL; growth stage 15). Each spray test was replicated three times. The test plants were then grown in a glasshouse under controlled conditions (24/18° C. day/night; 16 hours light; 65% humidity) and watered twice a day. The efficacy of the herbicide was assessed visually and expressed as a percentage of the leaf area killed. Samples were assessed at a time period of 21 days following application.

Setaria viridis (SETVI) = assay: Glasshouse adjuvancy test for pinoxaden on SETVI; settings: total surfactant 0.2% w/v, 21 days
Experimental: Pinoxaden was added to the spray tank as a standard EC (emulsifiable concentrate) formulation. The plants were sprayed with pinoxaden at rates of 7.5 or 15 grams of pesticide per hectare using a laboratory track sprayer which delivered the aqueous spray composition at a rate of 200 litres per hectare, using a flat fan nozzle (Teejet 11002VS) at 2 bar. The spray solutions also contained the oleyl 20EO alone or in the 1:1 blends with the capped surfactants. The adjuvants were added to the spray solution at a total surfactant rate of 0.2% w/v. All spray solutions also contained 10% w/w of iso-propanol. The weed species and their BBCH growth stage at spraying were Avena fatua (AVEFA; growth stage 13) and Setaria viridis (SETVI; growth stage 13). Each spray test was replicated three times. The test plants were then grown in a glasshouse under controlled conditions (20/16° C. day/night; 16 hours light; 65% humidity) and watered twice a day. The efficacy of the herbicide was assessed visually and expressed as a percentage of the leaf area killed. Samples were assessed at a time period of 21 days following application.

[4] = nicosulfuron 15 g ai/ha, 0.1% total surfactant concentration, 21 days, Table 8
[5] = nicosulfuron 15 g ai/ha, 0.2% total surfactant concentration, 21 days, Table 7
[6] = nicosulfuron 60 g ai/ha, 0.1% total surfactant concentration, 21 days, Table 8
[7] = nicosulfuron 60 g ai/ha, 0.2% total surfactant concentration, 21 days, Table 7

CCCCCCCC/C=C\CCCCCCCCOCCOCCOCCOCCOCCOCCOCCOCCOCCOCCOCCOCCOCCOCCOCCOCCOCCOCCOCCOCCO [Oleyl 20EO, oleyl 20 ethoxylate]
Mean control ([1]; dose response, nicosulfuron 15 g ai/ha, adjuvant 0.05%): 60.0%
Mean control ([1]; dose response, nicosulfuron 15 g ai/ha, adjuvant 0.1%): 76.7%
Mean control ([1]; dose response, nicosulfuron 15 g ai/ha, adjuvant 0.2%): 83.3%
Mean control ([1]; dose response, nicosulfuron 60 g ai/ha, adjuvant 0.05%): 53.3%
Mean control ([1]; dose response, nicosulfuron 60 g ai/ha, adjuvant 0.1%): 60.0%
Mean control ([1]; dose response, nicosulfuron 60 g ai/ha, adjuvant 0.2%): 80.0%
Mean control [1, 4]: 76.7%
Mean control [1, 5]: 83.3%
Mean control ([1]; nicosulfuron 15 g ai/ha, 0.2% w/v total adjuvant, Example 3, growth stage 14-22): 91.3%
Mean control [1, 6]: 60%
Mean control [1, 7]: 80%
Mean control ([1]; nicosulfuron 60 g ai/ha, 0.2% w/v total adjuvant, Example 3, growth stage 14-22): 85.0%
Mean control ([2]; mesotrione 30 g ai/ha): 56.7%
Mean control ([2]; mesotrione 60 g ai/ha): 71.7%
Mean control ([3]; fomesafen (sodium salt) 100 g ai/ha): 68.3%
Mean control ([3]; fomesafen (sodium salt) 200 g ai/ha): 68.3%
Mean control (Setaria viridis (SETVI); pinoxaden 7.5 g ai/ha): 98.0%
Mean control (Setaria viridis (SETVI); pinoxaden 15 g ai/ha): 98.3%

Oleyl 20EO n-hexyl ether
Mean control [1, 4]: 81.7%
Mean control [1, 5]: 73.3%
Mean control [1, 6]: 75%
Mean control [1, 7]: 81.7%
